Test results: EP0443899A1, “Process for synthetising oligomers of (methylbenzyl)xylene and their use as dielectric” (ELF ATOCHEM S.A., priority 1990, dated 1991)

Key:
Assay type in all cases: physicochemical
[1] = Breakdown voltage, alternating current 50 Hz, method 2 (ramp 1000 V/30 s, asymmetric point/disc electrodes); set-up: unit not given here; conditions: 50 Hz AC, 1000V every 30 s, point ø 0,6, disc ø 39,6, mean (extreme values)
From the text: (§1) Nous avons comparé différents liquides par la mesure de leur tension de claquage en courant alternatif 50 Hz dans les 2 conditions suivantes (méthodes 1 et 2) : • 1 - rampe 2000 V/s - électrodes dissymétriques. • pointe diamètre 0,6 mm • disque à bords arrondis Rogowski, diamètre 39,6 mm • distance interélectrode = 3,2 mm • 2 - rampe 1000 V/30s - électrodes dissymétriques • pointe diamètre 0,6 mm • disque diamètre 39,6 mm • distance 3,2-10-15-20 mm

[2] = Crystallisation of the dielectric liquids at low temperature and on storage; conditions: for cristallise: general description, products prepared from orthoxylene
From the text: Cristallisation du produit XXO1 de l'exemple 1, du produit XX02 de l'exemple 1, et d'un mélange de 85 % en poids de XXO1 et 15 % en poids de XX02 (voir exemple 1) qu'on appelle XX05.
On effectue les mêmes essais que dans l'exemple 3 mais avec des produits XX01 et XX02 préparés comme dans l'exemple 1 sauf qu'on utilise un mélange de 75 % d'orthoxylène et 25 % de paraxylène ou bien de 100 % d'orthoxylène.

[3] = Breakdown voltage, alternating current 50 Hz, method 1 (ramp 2000 V/s, asymmetric point/disc electrodes); conditions: 50 Hz AC, point ø 0,6 mm, disc ø 39,6 mm, inter-electrode distance 3,2 mm, mean (extreme values)
From the text: as §1

Row | Substance | tension de claquage ([1]; inter-electrode distance 3,2 mm) | tension de claquage ([1]; inter-electrode distance 10 mm) | tension de claquage ([1]; inter-electrode distance 15 mm) | tension de claquage ([1]; inter-electrode distance 20 mm) | Cristallisation ([2]; Example 3, products of Example 1 (from orthoxylene)) [°C] | cristallise [2] | tension de claquage [3]
1 | (méthylbenzyl)xylène [XX01] | 41,2 (37,7-45,3) (5) | 69,5 (65,3-75,8) (5) | 82,4 (74-89) (5) | 93,8 (90,0-105,0) (5) | -40 | -40 °C | 
2 | di(méthylbenzyl)xylène |  |  |  |  |  | solide à la température ambiante | 
3 | dodécylbenzène ramifié [DDB] |  |  |  |  |  |  | 39,0 (34,9-44,4) (10)
